Reference: patent publication US9156872B2, “2′-azido substituted nucleoside derivatives and methods of use thereof for the treatment of viral diseases” (priority 2011, dated 2015)
Read-outs that look alike come from different tables or passages of the source.

Assays:
[1] = target: HCV NS5B RNA-dependent RNA polymerase (1b-BKΔ55) (Hepatitis C virus genotype 1b, UniProt P26663); assay: biochemical
replicon cells (1b-Con1) = assay: Replicon activity assay (1b-Con1 replicon cells, real-time RT-PCR); type: cell-based, HCV; conditions: Hepatitis C virus, 72 h, read-out: Replicon (1b) EC50
replicon cells [2] = tested on: replicon cells
replicon cells [3] = assay: Cytotoxicity in replicon cells (MTS assay, CellTiter 96); conditions: CC50, MTS assay, three days post dosing
HCV replicon cells = assay: Cell-based HCV replicon assay (replicon RNA by Taqman real time PCR); conditions: read-out: 1b EC50

Chain of HCV NS5B RNA-dependent RNA polymerase (1b-BKΔ55) (P26663 2420-2955 limits assumed, stated change not applied): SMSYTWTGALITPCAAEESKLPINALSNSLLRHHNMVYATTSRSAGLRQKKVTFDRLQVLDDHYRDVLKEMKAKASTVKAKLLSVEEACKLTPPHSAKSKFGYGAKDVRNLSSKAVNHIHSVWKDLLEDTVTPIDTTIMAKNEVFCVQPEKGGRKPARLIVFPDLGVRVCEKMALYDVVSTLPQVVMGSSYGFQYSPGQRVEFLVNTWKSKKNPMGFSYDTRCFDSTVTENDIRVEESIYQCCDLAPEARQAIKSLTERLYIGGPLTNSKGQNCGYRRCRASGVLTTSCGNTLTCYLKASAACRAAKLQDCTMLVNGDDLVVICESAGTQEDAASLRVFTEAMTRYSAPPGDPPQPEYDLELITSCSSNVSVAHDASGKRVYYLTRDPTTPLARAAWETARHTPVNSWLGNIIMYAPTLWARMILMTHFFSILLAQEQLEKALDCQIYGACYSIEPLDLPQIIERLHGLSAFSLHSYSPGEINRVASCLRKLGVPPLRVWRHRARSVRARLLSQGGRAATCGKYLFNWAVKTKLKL

| SMILES | EC50 (replicon cells (1b-Con1)) [nM] | Cytotoxicity (replicon cells [2]) [µM] | other results |
| --- | --- | --- | --- |
| C[C@@]1(N=[N+]=[N-])[C@H](O)C(COP(=O)(O)OP(=O)(O)OP(=O)(O)O)O[C@H]1n1ccc(N)nc1=O (stereo partly shown) [Compound 75] |  |  | IC50 [1]: 10000 nM |
| CC(C)COC(=O)[C@H](C)NP(=O)(OC[C@H]1O[C@@H](n2ccc(=O)[nH]c2=O)[C@](C)(N=[N+]=[N-])[C@@H]1O)Oc1ccccc1 (stereo partly shown) [drawing 892] | 800 | 55 |  |
| CCOC(=O)c1ccccc1OP(=O)(N[C@@H](C)C(=O)OC)OC[C@H]1O[C@@H](n2ccc(=O)[nH]c2=O)[C@](C)(N=[N+]=[N-])[C@@H]1O (stereo partly shown) | 2800 | >100 |  |
| CCOc1nc(N)nc2c1ncn2[C@@H]1O[C@H](COP(=O)(N[C@@H](C)C(=O)OC)Oc2ccc(Cl)cc2)[C@@H](O)[C@@]1(C)N=[N+]=[N-] (stereo partly shown) [drawing 887] | 900 | 25 |  |
| CC(C)OC(=O)[C@H](C)NP(=O)(OC[C@H]1O[C@@H](n2ccc(N)nc2=O)[C@](C)(N=[N+]=[N-])[C@@H]1O)Oc1ccccc1Cl (stereo partly shown) [drawing 885] | 1300 | >100 |  |
| CCCC(CCC)COC(=O)[C@H](C)NP(=O)(OC[C@H]1O[C@@H](n2ccc(=O)[nH]c2=O)[C@](C)(N=[N+]=[N-])[C@@H]1O)Oc1ccccc1 (stereo partly shown) [drawing 886] | 2100 | 83 |  |
| CCOC(=O)[C@H](C)NP(=O)(OC[C@H]1O[C@@H](n2cnc3c(OC)nc(N)nc32)[C@](C)(N=[N+]=[N-])[C@@H]1O)Oc1ccccc1 (stereo partly shown) [drawing 880] | 400 | >100 |  |
| C[C@@]1(N=[N+]=[N-])[C@H](O)[C@@H](COP(=O)(O)OP(=O)(O)OP(=O)(O)O)O[C@H]1n1ccc(=O)[nH]c1=O [Compound 74] |  |  | IC50 [1]: 55000 nM |
| CCOC(=O)[C@H](C)NP(=O)(OC[C@H]1O[C@@H](n2cnc3c(N4CCC4)nc(N)nc32)[C@](C)(N=[N+]=[N-])[C@@H]1O)Oc1ccccc1 (stereo partly shown) [drawing 882] | 1500 | >100 |  |
| C[C@H](NP(=O)(OC[C@H]1O[C@@H](n2ccc(=O)[nH]c2=O)[C@](C)(N=[N+]=[N-])[C@@H]1O)Oc1ccc2c(c1)OCO2)C(=O)OCc1ccccc1 (stereo partly shown) [drawing 888] | 1200 |  |  |
| CCOC(=O)[C@H](C)NP(=O)(OC[C@H]1O[C@@H](n2cnc3c(OC)nc(N)nc32)[C@](C)(N=[N+]=[N-])C1O)Oc1ccc(Cl)cc1 (stereo partly shown) | 1200 | >100 |  |
| CC(C)OC(=O)[C@H](C)NP(=O)(OC[C@H]1O[C@@H](n2ccc(=O)[nH]c2=O)[C@](C)(N=[N+]=[N-])[C@@H]1O)Oc1ccccc1 (stereo partly shown) | 3100 | >100 |  |
| CCOC(=O)[C@H](C)NP(=O)(OC[C@H]1O[C@@H](n2cnc3c(OCC)nc(N)nc32)[C@](C)(N=[N+]=[N-])[C@@H]1O)Oc1ccccc1 (stereo partly shown) [drawing 881] | 1000 | >100 |  |
| COc1nc(N)nc2c1ncn2C1O[C@@H]2COP(=O)(OC(C)C)O[C@H]2[C@@]1(C)N=[N+]=[N-] (stereo partly shown) |  |  | Cytotoxicity (replicon cells [3]): >100 µM; EC50 (replicon cells (1b-Con1); 1b-Con1 replicon cells, three days post-dosing): 8300 nM |
| C[C@@]1(N=[N+]=[N-])[C@H](O)C(COP(=O)(O)OP(=O)(O)OP(=O)(O)O)O[C@H]1n1cnc2c(=O)[nH]c(N)nc21 (stereo partly shown) [Compound 76] |  |  | IC50 [1]: 1700 nM |
| COC(=O)[C@H](C)NP(=O)(OC[C@H]1O[C@@H](n2ccc(N)nc2=O)[C@](C)(N=[N+]=[N-])[C@@H]1O)Oc1ccc(Cl)c(Cl)c1 (stereo partly shown) | 35000 | >100 |  |
| COC(=O)[C@H](C)NP(=O)(OC[C@H]1O[C@@H](n2cnc3c(NC4CC4)nc(N)nc32)[C@](C)(N=[N+]=[N-])[C@@H]1O)Oc1ccccc1Cl (stereo partly shown) [drawing 883] | 1400 | >100 |  |
| CC(C)OC(=O)[C@H](C)NP(=O)(OC[C@H]1O[C@@H](n2ccc(=O)[nH]c2=O)[C@](C)(N=[N+]=[N-])[C@@H]1O)Oc1ccc(Cl)c(Cl)c1 (stereo partly shown) [drawing 890] | 7600 | 42 |  |
| C[C@H](NP(=O)(OC[C@H]1O[C@@H](n2ccc(=O)[nH]c2=O)[C@](C)(N=[N+]=[N-])[C@@H]1O)Oc1ccc2c(c1)OCO2)C(=O)OCc1ccccc1 (stereo partly shown) [Compound 305] |  |  | EC50 (HCV replicon cells; Hepatitis C virus, 72 h): 1200 nM |
| COC(=O)[C@H](C)NP(=O)(OC[C@H]1O[C@@H](n2cnc3c(OC)nc(N)nc32)[C@](C)(N=[N+]=[N-])[C@@H]1O)Oc1ccc(F)cc1 (single isomer, unassigned) [Compound 266] |  |  | EC50 (HCV replicon cells): 2400 nM |
